Marks after values point to notes of the source that are not given here.
What was measured:
[1] = test system: SY5Y neuroblastoma cell line; test: Induction of apoptosis / DNA fragmentation
[2] = test system: 3 other neuroblastoma cell lines; test: Growth inhibition over 6 days (RFU); type: cell-based, human; details: 0.5 and 1.0 mM, FIG. 1a
PC-3 (prostate cancer) = test: Survival fraction after 72 hours exposure (MTT assay); type: cell-based, human
Description: (§1) Growth inhibition was measured by the MTT assay. Survival fraction is calculated from at least 3 experiments, and differences in survival fraction are statistically significant P<0.05, using the Paired Two-Sample For Means T-Test. […] PC-3=prostate cancer; A549=non-small cell cancer; OvCar=ovarian cancer; CaCo=colon cancer; MCF-7=breast cancer; and SW900=non-small cell lung cancer.

[3] = test system: SW900 (non-small cell lung cancer); test: as above; type: cell-based, human
Description: as §1

MCF-7 (breast cancer) = test: as above; type: cell-based, human
Description: as §1

OvCar (ovarian cancer) = test: as above; type: cell-based, human
Description: as §1

[4] = test system: n-myc transcript in neuroblastoma cells; test: Expression of oncogene n-myc transcript; type: cell-based, human; details: 1 mM
[5] = test system: Colonic Adenocarcinoma (HT 29); test: Differentiation and growth arrest of tumor cell line; type: cell-based, human
Description: The effects of arginine butyrate compounds on differentiation of several human tumor cell lines were evaluated by visual inspection and by histochemical and pathological staining:
Inhibition of DNA synthesis (as measured by ^3H-thymidine incorporation) occurred by 6 hours. Expression of the proto-oncogene c-myc was decreased by 2 hours.

[6] = test system: human malignant cell lines from breast, colon, lung, prostate, ovarian and lymphoid sources; test: Cytotoxicity as single agent, cell death at 72 hours; type: cell-based; details: all concentrations tested
[7] = test system: EBV-TK mRNA in P3RH1 (EBV B-cell producer line); test: EBV-TK mRNA induction in lymphoma cell lines; type: cell-based, human; details: 12 hours, 3 mM
Description: (§2) Because of arginine butyrate's ability to induce various genes, its ability to induce EBV-TK mRNA in human lymphoma cell lines was evaluated. FIG. 7 provides bar graphs of the basal levels of TK and the levels following 12 hours of incubation with 3 mM arginine butyrate in 3 lymphoma cell lines: X50-7 a latent large cell lymphoma (B cell); P3RH1 an EBV B-cell producer line derived from Burkitt's lymphoma; and Raji a non-producer line derived from a Burkitt's lymphoma. EBV-TK levels were not increased in the EBV non-producer cell line, Raji, which has a high basal level of TK, but were increased approximately 4 fold in an EBV producer cell line and 10 fold in a non-producer cell line.

[8] = test system: EBV-TK mRNA in X50-7 (latent large cell lymphoma); test: EBV-TK mRNA induction in lymphoma cell lines; type: cell-based, human; details: non-producer (latent) line X50-7; 12 hours, 3 mM
Description: as §2

[9] = test system: EBV-TK mRNA in Raji (non-producer line); test: EBV-TK mRNA induction in lymphoma cell lines; type: cell-based, human; details: high basal level of TK, 12 hours, 3 mM
Description: as §2

[10] = test system: HLA antigens in K562 cells; details: one hour of exposure to 1 mM
Description: HLA Induction: Arginine butyrate was tested for its ability to induce expression of HLA antigens in K562 cells, a human erythroleukemia cell line.

[11] = test system: A549 (non-small cell cancer); test: Survival fraction after 72 hours exposure (MTT assay); type: cell-based, human
Description: (§3) Growth inhibition was measured by the MTT assay. […] PC-3=prostate cancer; A549=non-small cell cancer; OvCar=ovarian cancer; CaCo=colon cancer; MCF-7=breast cancer; and SW900=non-small cell lung cancer.

CaCo (colon cancer) = test: as above; type: cell-based, human
Description: as §3

fetal globin mRNA = test: Fetal globin mRNA response in patients; type: in vivo, human; details: β-hemoglobinopathies; IV 500 to 2,000 mg/kg/day, 2-7 weeks
Description: Eleven pediatric and twelve adult patients with β-hemoglobinopathies have been treated with IV arginine butyrate at a starting dose of 500 mg/kg/day for 2-7 weeks. Dose escalation at the rate of 250 mg/kg/day to a maximum of 2,000 mg/kg/day was permitted.

[12] = test system: Fibroblasts (mouse BALB/c-3T3); test: MIC on cell proliferation, 7 days in culture; type: cell-based
Description: (§4) The ability of arginine butyrate to induce differentiation has been evaluated and is measured by inhibition of growth, in some of the neoplastic cell types previously reported to be sensitive to (sodium) butyric acid, and found arginine butyrate to be as potent as butyric acid. We have also extended that work to additional cell types and found Arginine Butyrate to induce differentiation in these new cell types. Table 1 lists the cell types tested and the minimum inhibitory concentration (MIC) of sodium butyrate (NaB) and arginine butyrate (ArgB) on these cell lines. The MIC is the lowest dose that prevents all growth over the 7 days that the cells are maintained in culture, that is the minimum dose that prevents an increase in cell number. […] The […] of ArgB and NaB were equivalent on all cell lines tested.

[13] = test system: Fibroblasts (normal human); test: MIC on cell proliferation, 7 days in culture; type: cell-based; details: lowest dose that prevents all growth over 7 days
Description: as §4

SKNSH cells = test: Induction of apoptosis; type: cell-based, human; details: FIG. 1b
[14] = Table 3, 0.5 AB (0.5 mM), 72 hours
[15] = Table 4, 0.5 AB (0.5 mM), 72 hour

arginine butyrate
apoptosis ([1]; FIG. 1c): induces apoptosis | DNA fragmentation ([1]; both 0.5 and 1.0 mM): significant DNA fragmentation was found | growth inhibition [2]: dose response growth inhibition | Survival Fraction (PC-3 (prostate cancer); [14]): 0.67* | Survival Fraction (PC-3 (prostate cancer); [15]): 0.74* | Survival Fraction (PC-3 (prostate cancer); Table 4, .05 AB, 72 hour): 0.82* | Survival Fraction ([3]; Table 4, 0.5 AB (0.5 mM)): 0.92 | Survival Fraction ([3]; Table 4, .05 AB): 0.95 | Survival Fraction (MCF-7 (breast cancer); Table 4, 0.5 AB (0.5 mM)): 0.74* | Survival Fraction (MCF-7 (breast cancer); Table 4, .05 AB): 0.89* | Survival Fraction (OvCar (ovarian cancer); [14]): 0.86** | Survival Fraction (OvCar (ovarian cancer); [15]): 0.88* | Survival Fraction (OvCar (ovarian cancer); Table 4, .05 AB, 72 hour): 0.96 | expression of n-myc transcript [4]: decreased approximately Mold | morphology and differentiation markers [5]: developed a mature brush border, and increased expression of sucrase/isomaltase | time by which expression of proto-oncogene c-myc was decreased [5]: ≤ 2 h | time by which inhibition of DNA synthesis (3H-thymidine incorporation) occurred [5]: ≤ 6 h | growth arrest ([5]; no further growth out to 25 days): absolute growth arrest by day 3-4 | concentrations at which cell death at 72 hours was seen [6]: 0.1 to 5.0 mM | EBV-TK level increase [7]: approximately 4 fold | EBV-TK level increase [8]: ~10 fold | EBV-TK levels [9]: not increased | HLA expression increase [10]: more than 20 fold | Survival Fraction [11, 14]: 0.92 | Survival Fraction [11, 15]: 0.76* | Survival Fraction ([11]; Table 4, .05 AB, 72 hour): 0.71* | Survival Fraction (CaCo (colon cancer); Table 3, 1.0 AB (1.0 mM), 72 hours): 0.60* | Survival Fraction (CaCo (colon cancer); [15]): 0.67* | Survival Fraction (CaCo (colon cancer); Table 4, .05 AB, 72 hour): 0.81* | response as judged by increase in fetal globin mRNA (fetal globin mRNA): most patients showed response | MIC [12]: >5,000 μM | MIC [13]: >5,000 μM | apoptosis (SKNSH cells): induces apoptosis

— patent US6677302B2, “Compositions and methods for the treatment of viral disorders” (The Trustees of Boston University, priority 1996, dated 2004)
